Data published in PubChem BioAssay AID248 (DTP/NCI, 2004).
Several values for one entry are separate records, joined by “and”; a condition that tells them apart may be missing. Equal entries are not always repeated. Toxic doses and inconclusive results are not listed. Rule as the data show it: active = T/C of 150% or more; inactive = T/C below 125%.

Test system: L1210 leukemia ip in BDF1 mice, survival T/C
Assay: NCI In Vivo Anticancer Drug Screen. Data for tumor model L1210 Leukemia (intraperitoneal) in B6D2F1 (BDF1) mice
Conditions: endpoint: mean survival time, higher = longer survival
Summary of the method: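 Each compound was tested against a transplantable tumor grown in mice. The endpoint was survival, with treated animals benchmarked against vehicle controls as a simple ratio.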

[1] = dose: 100.0 mg/kg/injection, schedule: Q01DX001 (ip), vehicle: other
[2] = dose: 200.0 mg/kg/injection, schedule: Q01DX001 (ip), vehicle: other
[3] = dose: 400.0 mg/kg/injection, schedule: Q01DX001 (ip), vehicle: other
[4] = dose: 100.0 mg/kg/injection, schedule: Q04DX003 (ip), vehicle: Klucel (hydroxypropylcellulose) (HPC)
[5] = dose: 200.0 mg/kg/injection, schedule: Q04DX003 (ip), vehicle: Klucel (hydroxypropylcellulose) (HPC)
[6] = dose: 400.0 mg/kg/injection, schedule: Q04DX003 (ip), vehicle: Klucel (hydroxypropylcellulose) (HPC)
[7] = dose: 100.0 mg/kg/injection, schedule: Q01DX009 (ip), vehicle: saline with Tween-80
[8] = dose: 200.0 mg/kg/injection, schedule: Q01DX009 (ip), vehicle: saline with Tween-80
[9] = dose: 100.0 mg/kg/injection, schedule: Q01DX001 (ip), vehicle: carboxymethylcellulose (CMC)
[10] = dose: 200.0 mg/kg/injection, schedule: Q01DX001 (ip), vehicle: carboxymethylcellulose (CMC)
[11] = dose: 400.0 mg/kg/injection, schedule: Q01DX001 (ip), vehicle: carboxymethylcellulose (CMC)
[12] = dose: 100.0 mg/kg/injection, schedule: Q04DX003 (ip), vehicle: saline with Tween-80
[13] = dose: 100.0 mg/kg/injection, schedule: Q04DX002 (ip), vehicle: Klucel (hydroxypropylcellulose) (HPC)
[14] = dose: 200.0 mg/kg/injection, schedule: Q04DX002 (ip), vehicle: Klucel (hydroxypropylcellulose) (HPC)
[15] = dose: 100.0 mg/kg/injection, schedule: Q01DX009 (ip), vehicle: Klucel (hydroxypropylcellulose) (HPC)
[16] = dose: 25.0 mg/kg/injection, schedule: Q04DX002 (ip), vehicle: Klucel (hydroxypropylcellulose) (HPC)
[17] = dose: 50.0 mg/kg/injection, schedule: Q04DX002 (ip), vehicle: Klucel (hydroxypropylcellulose) (HPC)
[18] = dose: 100.0 mg/kg/injection, schedule: Q01DX001 (ip), vehicle: saline
[19] = dose: 200.0 mg/kg/injection, schedule: Q01DX001 (ip), vehicle: saline
[20] = dose: 400.0 mg/kg/injection, schedule: Q01DX001 (ip), vehicle: saline

Measured: T/C

CSC(=NC1CCCCC1)Nc1ccccc1
inactive: [1] 98 % of control | [2] 98 % of control | [3] 88 % of control

CC12CC3(O)CCC1CCC2C(=O)C3 (stereo not given)
inactive: dose: 100.0 mg/kg/injection, schedule: Q01DX009 (ip), vehicle: saline 95 % of control | dose: 100.0 mg/kg/injection, schedule: Q04DX003 (ip), vehicle: saline 93 % of control | dose: 200.0 mg/kg/injection, schedule: Q04DX003 (ip), vehicle: saline 96 % of control | dose: 400.0 mg/kg/injection, schedule: Q01DX009 (ip), vehicle: saline 96 % of control | dose: 400.0 mg/kg/injection, schedule: Q04DX003 (ip), vehicle: saline 105 % of control

O=C1C2CC=C(c3ccccc3)C1CCC2 (stereo not given)
inactive: dose: 75.0 mg/kg/injection, schedule: Q01DX001 (ip), vehicle: other 103 % of control | dose: 150.0 mg/kg/injection, schedule: Q01DX001 (ip), vehicle: other 97 % of control | dose: 300.0 mg/kg/injection, schedule: Q01DX001 (ip), vehicle: other 102 % of control

CCN(CC)C(=O)c1ccc(C(Cl)(Cl)Cl)cc1
inactive: dose: 75.0 mg/kg/injection, schedule: Q01DX009 (ip), vehicle: saline sonified 91 % of control | [4] 87 % of control | dose: 150.0 mg/kg/injection, schedule: Q01DX009 (ip), vehicle: saline sonified 91 % of control | [5] 89 % of control | dose: 300.0 mg/kg/injection, schedule: Q01DX009 (ip), vehicle: saline sonified 87 % of control | [6] 91 % of control

Nc1nc(N)c2nc(CNc3ccc(C(=O)NC(CCCCC(=O)O)C(=O)O)cc3)cnc2n1 (stereo not given)
active: dose: 20.0 mg/kg/injection, schedule: Q01DX009 (ip), vehicle: sodium bicarbonate 157 % of control

CC(=O)Nc1cccc(S(=O)(=O)F)c1
inactive: dose: 50.0 mg/kg/injection, schedule: Q01DX009 (ip), vehicle: saline with Tween-80 100 % of control | [7] 105 % of control | [8] 88 % of control

CC(Cl)CN(Cc1cc(CN(CC(C)Cl)CC(C)Cl)c(O)cc1O)CC(C)Cl (stereo not given)
inactive: dose: 12.5 mg/kg/injection, schedule: Q01DX001 (sc), vehicle: olive oil, sesame oil, peanut oil 102 % of control | dose: 12.5 mg/kg/injection, schedule: Q01DX015 (sc), vehicle: olive oil, sesame oil, peanut oil 95 % of control | dose: 25.0 mg/kg/injection, schedule: Q01DX001 (sc), vehicle: olive oil, sesame oil, peanut oil 100 % of control | dose: 25.0 mg/kg/injection, schedule: Q01DX015 (sc), vehicle: olive oil, sesame oil, peanut oil 110 % of control | dose: 50.0 mg/kg/injection, schedule: Q01DX001 (ip), vehicle: carboxymethylcellulose (CMC) 93 % of control | dose: 50.0 mg/kg/injection, schedule: Q01DX001 (sc), vehicle: olive oil, sesame oil, peanut oil 96 % of control | dose: 50.0 mg/kg/injection, schedule: Q01DX015 (sc), vehicle: olive oil, sesame oil, peanut oil 93 % of control | [9] 110 % of control | dose: 100.0 mg/kg/injection, schedule: Q01DX001 (sc), vehicle: olive oil, sesame oil, peanut oil 102 % of control | dose: 100.0 mg/kg/injection, schedule: Q01DX015 (sc), vehicle: olive oil, sesame oil, peanut oil 95 % of control | [10] 110 % of control | dose: 200.0 mg/kg/injection, schedule: Q01DX015 (sc), vehicle: olive oil, sesame oil, peanut oil 112 % of control | [11] 104 % of control | dose: 400.0 mg/kg/injection, schedule: Q01DX015 (sc), vehicle: olive oil, sesame oil, peanut oil 104 % of control | dose: 600.0 mg/kg/injection, schedule: Q01DX015 (sc), vehicle: olive oil, sesame oil, peanut oil 102 % of control

NC(CSC(c1ccccc1)(c1ccccc1)c1ccc(C(=O)O)cc1)C(=O)O (stereo not given)
inactive: dose: 12.5 mg/kg/injection, schedule: Q01DX009 (ip), vehicle: water 106 % of control | dose: 25.0 mg/kg/injection, schedule: Q01DX009 (ip), vehicle: water 102 % of control and 103 % of control | dose: 50.0 mg/kg/injection, schedule: Q01DX009 (ip), vehicle: water 103 % of control and 100 % of control | dose: 100.0 mg/kg/injection, schedule: Q01DX009 (ip), vehicle: water 101 % of control and 108 % of control | dose: 200.0 mg/kg/injection, schedule: Q01DX009 (ip), vehicle: water 102 % of control | dose: 400.0 mg/kg/injection, schedule: Q01DX009 (ip), vehicle: water 97 % of control and 102 % of control

Cc1cc(C)c2[nH]c(=O)c(C)c(C)c2c1
inactive: [1] 104 % of control | [2] 95 % of control | [3] 95 % of control

COc1cccc(-c2c(C(=O)OC(C)(C)C)cc(O)c3ccc(OC)cc23)c1
inactive: [9] 97 % of control | [10] 96 % of control | [11] 97 % of control

BrC1C2CC(c3ccccc32)C1Br (stereo not given)
inactive: [7] 101 % of control | [12] 94 % of control | [8] 91 % of control | dose: 200.0 mg/kg/injection, schedule: Q04DX003 (ip), vehicle: saline with Tween-80 93 % of control | dose: 400.0 mg/kg/injection, schedule: Q01DX009 (ip), vehicle: saline with Tween-80 98 % of control | dose: 400.0 mg/kg/injection, schedule: Q04DX003 (ip), vehicle: saline with Tween-80 95 % of control

COC1OC(CI)C(OC(=O)c2ccccc2)C(OC(=O)c2ccccc2)C1OC(=O)c1ccccc1 (stereo not given)
inactive: [13] 101 % of control | [14] 93 % of control | dose: 400.0 mg/kg/injection, schedule: Q04DX002 (ip), vehicle: Klucel (hydroxypropylcellulose) (HPC) 121 % of control

NC(=O)NC1C(c2ccccc2)=NOC1C(N)=O (stereo not given)
inactive: dose: 25.0 mg/kg/injection, schedule: Q04DX003 (ip), vehicle: Klucel (hydroxypropylcellulose) (HPC) 94 % of control | dose: 50.0 mg/kg/injection, schedule: Q01DX009 (ip), vehicle: Klucel (hydroxypropylcellulose) (HPC) 88 % of control | dose: 50.0 mg/kg/injection, schedule: Q04DX003 (ip), vehicle: Klucel (hydroxypropylcellulose) (HPC) 105 % of control | [15] 93 % of control | [4] 96 % of control

CC(C)(C)c1ccc(C(C)(C)C)c(O)c1
inactive: [16] 92 % of control and 90 % of control | [17] 95 % of control and 96 % of control | [13] 92 % of control and 104 % of control | [14] 92 % of control and 86 % of control

O=C(Oc1c(Cl)c(Cl)c(Cl)c(Cl)c1Cl)c1cc(Cl)cc(Cl)c1Br
inactive: dose: 25.0 mg/kg/injection, schedule: Q04DX003 (ip), vehicle: saline with Tween-80 105 % of control | dose: 50.0 mg/kg/injection, schedule: Q04DX003 (ip), vehicle: saline with Tween-80 102 % of control | [12] 97 % of control and 91 % of control

CC1OC(C)C(Cl)C1Cl (stereo not given)
inactive: [17] 110 % of control | [13] 95 % of control | [14] 100 % of control

O=[N+]([O-])c1cccc(Cl)c1Oc1cc(Cl)c(Cl)cc1Cl
inactive: dose: 1.25 mg/kg/injection, schedule: Q01DX001 (ip), vehicle: saline 105 % of control | dose: 2.5 mg/kg/injection, schedule: Q01DX001 (ip), vehicle: saline 105 % of control | dose: 5.0 mg/kg/injection, schedule: Q01DX001 (ip), vehicle: saline 102 % of control | dose: 10.0 mg/kg/injection, schedule: Q01DX001 (ip), vehicle: saline 96 % of control

CC(=O)Oc1c(C(C)(C)C)cc([N+](=O)[O-])c(C)c1[N+](=O)[O-]
inactive: [16] 95 % of control | [17] 97 % of control

Nc1ccccc1N/N=C/c1ccccc1
inactive: [18] 101 % of control | [19] 101 % of control | [20] 94 % of control

CC(=O)OC1CCCCCCC1
inactive: [15] 97 % of control | [4] 95 % of control | dose: 200.0 mg/kg/injection, schedule: Q01DX009 (ip), vehicle: Klucel (hydroxypropylcellulose) (HPC) 100 % of control | [5] 92 % of control | dose: 400.0 mg/kg/injection, schedule: Q01DX009 (ip), vehicle: Klucel (hydroxypropylcellulose) (HPC) 94 % of control | [6] 92 % of control

CC(=O)OC1CCC(=O)C2C(C(=O)O)CCCC12 (stereo not given)
inactive: [18] 97 % of control | [19] 103 % of control | [20] 91 % of control
